# Laboratory results as given in ChEMBL document CHEMBL1130711, “Identification of novel nucleotide phosphonate analogs with potent anti-HCMV activity” (Bioorg Med Chem Lett, 1998).
# Key:
# WI-38 [1] = experiment: Compound was tested for antiviral activity against WI-38 cell line using a plaque reduction assay; 10-50; type: functional; settings: Homo sapiens
# MRC5 [2] = experiment: (§1) Compound was tested for cytotoxicity by measuring inhibition of MRC-5 cell proliferation.; type: functional, cell-based; settings: Homo sapiens
# WI-38 [3] = experiment: Compound was tested for antiviral activity against WI-38 cell line using a plaque reduction assay; 0.1-1; type: functional, cell-based; settings: Homo sapiens
# MRC5 [4] = experiment: as §1; type: functional; settings: Homo sapiens
# Human betaherpesvirus 5 [5] = experiment: Compound was tested for antiviral activity against human cytomegalovirus (HCMV).; type: functional, organism-based
# Human betaherpesvirus 5 [6] = experiment: Compound was tested for cytotoxicity against human cytomegalovirus (HCMV).; type: functional
# WI-38 [7] = experiment: (§2) Compound was tested for antiviral activity against WI-38 cell line using a plaque reduction assay; type: functional; settings: Homo sapiens
# WI-38 [8] = experiment: as §2; type: functional, cell-based; settings: Homo sapiens
# WI-38 [9] = experiment: Compound was tested for antiviral activity against WI-38 cell line using a plaque reduction assay; 0.5-1; type: functional, cell-based; settings: Homo sapiens
# WI-38 [10] = experiment: Compound was tested for antiviral activity against WI-38 cell line using a plaque reduction assay; 10-100; type: functional; settings: Homo sapiens
Compound,IC50 (MRC5 [2]) [µg/mL],CC50 (MRC5 [4]) [µg/mL],CC50 (WI-38 [7]) [µg/mL],IC50 (WI-38 [8]) [µg/mL],also measured
Nc1ccn(C[C@@H](CO)OCP(=O)(O)O)c(=O)n1.O.O [CIDOFOVIR],0.04,19,,,CC50 (WI-38 [1]): 10 µg/mL; IC50 (WI-38 [3]): 0.1 µg/mL
Nc1nc(O)c2ncn(C[C@@H]3CO[C@H](P(=O)(O)O)O3)c2n1,,,,,IC50 (Human betaherpesvirus 5 [5]): 45 µg/mL; CC50 (Human betaherpesvirus 5 [6]): > 100 µg/mL
Nc1nc(N)c2ncn(C[C@H]3CC[C@@H](P(=O)(O)O)O3)c2n1,,,> 100,> 50,
Nc1nc(N)c2ncn(C[C@H]3CC[C@H](P(=O)(O)O)O3)c2n1,,,> 100,> 50,
Nc1nc(O)c2ncn(C[C@@H]3CC[C@H](P(=O)(O)O)O3)c2n1,1.6,> 10,,,CC50 (WI-38 [1]): 10 µg/mL; IC50 (WI-38 [9]): 0.5 µg/mL
Nc1nc(N)c2ncn(C[C@@H]3CC[C@@H](P(=O)(O)O)O3)c2n1,,,> 100,50,
Nc1nc(N)c2ncn(C[C@@H]3CC[C@H](P(=O)(O)O)O3)c2n1,,,> 100,> 50,
Nc1nc(O)c2ncn(C[C@H]3CC[C@H](P(=O)(O)O)O3)c2n1,,,> 100,> 10,
Nc1ncc2ncn(C[C@@H]3CC[C@H](P(=O)(O)O)O3)c2n1,,,> 100,100,
Nc1nc(O)c2ncn(C[C@@H]3CC[C@@H](P(=O)(O)O)O3)c2n1,0.11,28,,,IC50 (WI-38 [3]): 0.1 µg/mL; CC50 (WI-38 [10]): 10 µg/mL
Nc1nc2c(ncn2COC(CO)CO)c(=O)[nH]1 [GANCICLOVIR],2.1,> 100,,,
Nc1nc(O)c2ncn(C[C@H]3CC[C@@H](P(=O)(O)O)O3)c2n1,,,100,> 10,
